Data reported in ChEMBL document CHEMBL3046518, “Phytotoxic Compounds Cochlioquinones Are Inhibitors of Mitochondrial NADH-Ubiquinone Reductase” (J Pestic Sci, 1996).
One block for each compound: values may come before it. Activity calls are given as the source filed them. The calls are words filed in the database; no cut-off is given here.

Assays:
[1] = Inhibition of Bos taurus (bovine) heart mitochondrial […] activity assessed per mg protein
[2] = Inhibition of Bos taurus (bovine) heart mitochondrial electron transport protein complex 2/3 assessed per mg protein
Solanum tuberosum [3] = experiment: Inhibition of Solanum tuberosum (potato) tuber succinate oxidase activity at 3600 nmol/mg protein
Solanum tuberosum [4] = experiment: Inhibition of Solanum tuberosum (potato) tuber electron transport protein complex 3 activity
[5] = Inhibition of Bos taurus (bovine) heart mitochondrial electron transport protein complex 2 assessed per mg protein
[6] = Inhibition of Solanum tuberosum (potato) tuber proton-pump NADH dehydrogenase activity assessed per mg protein
[7] = Inhibition of Bos taurus (bovine) heart mitochondrial electron transport protein complex 4 assessed per mg protein
[8] = Inhibition of Bos taurus (bovine) heart mitochondrial electron transport protein complex 1 assessed per mg protein
Solanum tuberosum [9] = experiment: Inhibition of Solanum tuberosum (potato) tuber electron transport protein complex 2 activity
Solanum tuberosum [10] = experiment: Inhibition of Solanum tuberosum (potato) tuber electron transport protein complex 4 activity
[11] = Inhibition of Bos taurus (bovine) heart mitochondrial electron transport protein complex 3 assessed per mg protein

SMILES: CC[C@H](C)[C@@H](OC(C)=O)[C@@H](C)C1=CC(=O)C2=C(O[C@]3(C)CC[C@H]4O[C@@H](C(C)(C)O)CC[C@]4(C)[C@H]3[C@@H]2O)C1=O [COCHLIOQUINONE A]
- IC50 [1]: 115 nmol

- IC50 [2]: > 3600 nmol
- inhibition (Solanum tuberosum [3]): inactive
- inhibition (Solanum tuberosum [4]): inactive
- IC50 [5]: > 3600 nmol
- IC50 [6]: 3000 nmol
- IC50 [7]: > 3600 nmol
- inhibition (Solanum tuberosum [9]): inactive
- inhibition (Solanum tuberosum [10]): inactive
- IC50 [1]: 83 nmol
- IC50 [11]: > 3600 nmol
SMILES: CC[C@H](C)C(=O)[C@@H](C)C1=CC(=O)C2=C(O[C@]3(C)CC[C@H]4O[C@@H](C(C)(C)O)CC[C@]4(C)[C@H]3C2)C1=O [COCHLIOQUINONE B]
- IC50 [8]: 370 nmol

SMILES: CC[C@H](C)[C@@H](OC(C)=O)[C@@H](C)c1cc(O)c2c(c1O)O[C@]1(C)CC[C@H]3O[C@@H](C(C)(C)O)CC[C@]3(C)[C@H]1C2=O [ISOCOCHLIOQUINONE A]
- IC50 [1]: 56 nmol

SMILES: C/C=C(\C)[C@@H](OC(C)=O)[C@@H](C)C1=CC(=O)C2=C(O[C@]3(C)CC[C@H]4O[C@@H](C(C)(C)O)CC[C@]4(C)[C@H]3[C@@H]2O)C1=O [STEMPHONE]
- IC50 [1]: 160 nmol
